# Assay results reported in the NIST ThermoML archive (doi:10.1016/j.jct.2013.04.007).
# Assay: cn = amount concentration of the nth substance listed, in mol/dm3
# Details: 303.15 K; 101 kPa; Liquid; 4510 conductivity meter; c1 = 0.001
structure (smiles),measurement,value
CC1=C(C(=O)O)N2C(=O)[C@@H](NC(=O)[C@H](N)c3ccc(O)cc3)[C@H]2SC1 [cefadroxil] + O,electrical conductivity,0.0001 S/m
